Laboratory results as given in patent publication US20040191326A1, “Taste-masking vehicle for coated oxazolidinone particles” (priority 2003, published 2004).
Several values for one entry are separate records, joined by “and”; a condition that tells them apart may be missing. Equal entries are not always repeated. Where two headings read alike, the source gives them in different places.

Tests used:
[1] = Water activity (Pawkit water activity meter); format: physicochemical; details: sorbitol 9.9 molal, fructose 16.6 molal, sucrose 5.3 molal
Description: A Pawkit water activity meter uses a dielectric humidity sensor to measure the water activity (aw) of a sample. The unit is accurate to ±0.02 aw. The water activity meter was calibrated, using a 6.0 molal NaCl solution, before each new set of measurements was taken. Each sample was measured in duplicate.

[2] = Viscosity measurements (Bohlin Rheometer), screening and optimization phases; format: physicochemical; details: sorbitol 9.9 molal, fructose 16.6 molal, sucrose 5.3 molal (highest concentrations studied)
Description: 2. Viscosity Measurements
In the screening and optimization phases, described below, viscosity measurements were made using a Bohlin Rheometer, under the following conditions: a 10.0 pascal sheer stress and a continuous, single sweep type at a temperature of 25.0° C.

[3] = cited from earlier work

| Compound | Water activity of solution [1] | Viscosity of solution [2] | Dosage with laxative effect ([3]; adults) [grams/day] | Dosage with laxative effect ([3]; children) |
| --- | --- | --- | --- | --- |
| O=C(CO)[C@@H](O)[C@H](O)[C@H](O)CO [fructose] | 0.70 | 429 cps and 439 cps |  |  |
| OC[C@@H](O)[C@@H](O)[C@H](O)[C@@H](O)CO [sorbitol] | 0.81 | 48 cps | ≥ 20 | greater than 0.5 g/kg body weight |
| OC[C@H]1O[C@@](CO)(O[C@H]2O[C@H](CO)[C@@H](O)[C@H](O)[C@H]2O)[C@@H](O)[C@@H]1O [sucrose] | 0.86 | 119 cps |  |  |
